Measured values from ChEMBL document CHEMBL3351361, “Fragment-based screening of the bromodomain of ATAD2” (J Med Chem, 2014).

Molecular target: T1, ATPase family AAA domain-containing protein 2 (Homo sapiens, UniProt Q6PL18)
T1 sequence (Q6PL18 whole entry): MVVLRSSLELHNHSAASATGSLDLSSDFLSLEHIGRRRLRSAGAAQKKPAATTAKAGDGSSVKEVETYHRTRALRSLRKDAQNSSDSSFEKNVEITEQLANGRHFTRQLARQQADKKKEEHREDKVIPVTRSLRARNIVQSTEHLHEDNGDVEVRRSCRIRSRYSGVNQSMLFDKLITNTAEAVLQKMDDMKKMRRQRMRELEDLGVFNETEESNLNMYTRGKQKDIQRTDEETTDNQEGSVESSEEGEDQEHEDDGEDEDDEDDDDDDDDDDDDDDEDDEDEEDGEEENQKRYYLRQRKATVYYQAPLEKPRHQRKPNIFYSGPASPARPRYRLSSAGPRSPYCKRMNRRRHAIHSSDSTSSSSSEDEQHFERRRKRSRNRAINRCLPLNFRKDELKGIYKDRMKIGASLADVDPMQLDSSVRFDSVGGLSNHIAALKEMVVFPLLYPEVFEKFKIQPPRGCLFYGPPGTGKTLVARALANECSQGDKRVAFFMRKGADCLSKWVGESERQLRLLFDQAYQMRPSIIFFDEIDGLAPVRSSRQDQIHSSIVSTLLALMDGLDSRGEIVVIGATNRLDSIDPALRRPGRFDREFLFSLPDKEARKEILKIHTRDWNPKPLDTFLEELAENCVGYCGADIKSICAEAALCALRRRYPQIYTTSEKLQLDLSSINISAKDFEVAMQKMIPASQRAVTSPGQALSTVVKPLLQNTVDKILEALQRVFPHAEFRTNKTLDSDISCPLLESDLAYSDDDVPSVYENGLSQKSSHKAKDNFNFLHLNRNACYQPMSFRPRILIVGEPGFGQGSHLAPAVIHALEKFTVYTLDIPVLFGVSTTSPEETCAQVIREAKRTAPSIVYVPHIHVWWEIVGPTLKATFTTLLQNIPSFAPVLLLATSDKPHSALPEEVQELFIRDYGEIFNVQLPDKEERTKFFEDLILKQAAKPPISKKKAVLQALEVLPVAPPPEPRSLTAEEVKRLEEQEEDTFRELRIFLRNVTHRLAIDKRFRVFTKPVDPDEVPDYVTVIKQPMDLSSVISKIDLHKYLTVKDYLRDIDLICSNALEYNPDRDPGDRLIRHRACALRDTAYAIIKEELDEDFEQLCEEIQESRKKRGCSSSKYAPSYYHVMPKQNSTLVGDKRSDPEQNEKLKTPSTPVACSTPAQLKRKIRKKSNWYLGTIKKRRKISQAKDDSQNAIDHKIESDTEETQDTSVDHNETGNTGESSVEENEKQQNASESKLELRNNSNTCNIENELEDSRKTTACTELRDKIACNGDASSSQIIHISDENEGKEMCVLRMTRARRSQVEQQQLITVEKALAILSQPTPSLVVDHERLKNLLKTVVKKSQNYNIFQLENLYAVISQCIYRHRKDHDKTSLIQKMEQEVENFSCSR
Assay: Binding affinity to human ATAD2 (979 to 1108 aa) expressed in Escherichia coli BL21 (DE3) by SOFAST-HMQC NMR spectroscopy

| Kd [µM] | SMILES |
| --- | --- |
| 600 | Cc1cc2c(cc1N)n(C)c(=O)n2C |
| 350 | Nc1cccc(-c2n[nH]c(-c3ccccc3)n2)c1 |
